Reference: ChEMBL document CHEMBL3272062, “Difference in antimalarial activity between certain amino alcohol diastereomers” (J Med Chem, 1976)
The source made the active and inactive calls. The rule behind the calls is not given here.

Columns and labels:
Plasmodium berghei [1] = assay: Antimalarial activity against Plasmodium berghei infected in mouse assessed as cure rate at 640 mg/kg, sc measured on day 60 post-infection; assay type: functional, organism-based; design: dose 640 mg/kg
Mus musculus = assay: Toxicity in sc dosed mouse measured 2 to 5 days post-infection; assay type: organism-based; conditions: in vivo
Plasmodium berghei [2] = assay: Antimalarial activity against Plasmodium berghei infected in sc dosed mouse assessed as increase in mean survival time; assay type: functional, organism-based
Plasmodium berghei [3] = assay: Antimalarial activity against Plasmodium berghei infected in mouse assessed as increase in mean survival time at 160 mg/kg, sc; assay type: functional; conditions: route subcutaneous
Plasmodium berghei [4] = assay: Antimalarial activity against Plasmodium berghei infected in mouse assessed as increase in mean survival time at 80 mg/kg, sc; assay type: functional; conditions: route subcutaneous
Plasmodium berghei [5] = assay: Antimalarial activity against Plasmodium berghei infected in mouse assessed as increase in mean survival time at 320 mg/kg, sc; assay type: functional; conditions: route subcutaneous
Plasmodium berghei [6] = assay: Antimalarial activity against Plasmodium berghei infected in mouse assessed as increase in mean survival time at 40 mg/kg, sc; assay type: functional; conditions: route subcutaneous

OC(c1cc(C(F)(F)F)nc2c(C(F)(F)F)cccc12)C1CCCNC1 (single isomer, unassigned; diastereomer 1)
Activity (Plasmodium berghei [1]): Active

CN1CCCCC1C(O)c1cc2ccccc2c2cc(Br)ccc12.Cl (stereo not drawn)
Activity (Mus musculus): Toxic
Activity (Plasmodium berghei [2]): Active

OC(c1cc(C(F)(F)F)nc2c(C(F)(F)F)cccc12)C1CCCNC1 (single isomer, unassigned; diastereomer 2)
Activity (Plasmodium berghei [1]): inactive

O=C(O)/C=C/C(=O)O.OC(c1cc(C(F)(F)F)nc2c(C(F)(F)F)cccc12)C1CCCNC1 (single isomer, unassigned; diastereomer 1)
MST (Plasmodium berghei [3]): 11.2 days
MST (Plasmodium berghei [4]): 10.1 days
MST (Plasmodium berghei [5]): 15.2 days
MST (Plasmodium berghei [6]): 5.9 days
